Reference: patent US9125937B2, “Labelled analogues of halobenzamides as multimodal radiopharmaceuticals and their precursors” (INSTITUT NATIONAL DE LA SANTE ET DE LA RECHERCHE MEDICALE …, priority 2008, dated 2015)
Where a name gives a salt, the structure may show the parent alone.

Test system: B16 F0 murine melanoma
Assay: Biodistribution study by planar scintigraphic imaging (gamma camera), tumour uptake quantification
Type: in vivo, C57BL6 male mice
Details: i.v.
Experimental: Tumour Implantation. For transplantation, cells grown in monolayer culture to confluence were trypsinized and washed with phosphate buffer saline (PBS). They were resuspended in PBS and each mouse received 0.1 mL subcutaneously (3×10^5 cells) on the left flank in order to allow a tumour growth on the body side. Ten days later, the tumours became palpable with a percentage of tumour take of 98-100%.
The in vivo biodistribution and kinetic profile of each radiolabelled (iodine-125) compound have been studied in C57BL6 male mice bearing the B16 F0 murine melanoma by repeated planar scintigraphic imaging which allows the tumour uptake follow-up in the same animal.
Gamma Camera. In vivo radionuclide imaging was performed using a γ IMAGER (Biospace Mesures, Paris, France) especially dedicated for small animal, a scintigraphic camera with a continuous 4 mm thick×120 mm diameter CsI(Na) crystal, a position-sensitive Hamamatsu R3292 photomultiplier and a 10 cm field of view.
Imaging Protocol. On day 14 after tumour implantation (tumour weight 0.25±0.10 g) each [^125I]-radioiodinated compound was administered intravenously via a tail vein (0.1 μmol, range 3.7 to 7 MBq/animal) in three mice for each compound. At different times after administration (1, 3, 6, 24, 72 hours, 5, 7, 10 and 15 days), mice were anesthetized with 0.2 mL, for a 20 g mouse, of a ketamine-xylazine mixture in saline (1-0.25 mL for 5 mL) by i. p. administration, and repeated planar scintigraphic whole body imaging (mouse laying in anterior position on the camera field) were performed by an acquisition time of 10 min. For this study, the camera was equipped with a 1.8/0.2/20 collimator (hole diameter/septum thickness/height in mm).
Tumoural Radioactivity Quantification Approach. The injected activity to each mouse was determined from scintigraphic imaging of the syringe before and after the injection using the γ-IMAGER.
Regions of interest (ROIs) were delineated over the whole body image: whole body uptake area (or the various fixing areas, eyes, thyroid and abdomen) and one for the tumour uptake area. In the various ROIs, the activity (cpm) was quantified using the Biospace measures γ VISION+software. These values were normalized to the injected dose. For the tumour, the activity was also normalized to the tumour weight. Firstly, the volume was calculated from the two dimensions caliper measurement (Bissery, M. C.; Guenard, D.; Gueritte-Voegelin, F.; Lavelle, F. Experimental antitumour activity of taxotere (RP 56976, NSC 628503) a taxol analogue. Cancer res. 1991, 51, 4845-4852). Secondly, the weight was determined from the volume value corrected by a factor determined from a large panel of experiments (Weight g=volume mm^3×0.6). The data were expressed as % ID/g of B 16F0 melanoma tumour.

Structure (SMILES) | Radioactive concentration in tumour (tumoural uptake) (1 H post injection) | Radioactive concentration in tumour (tumoural uptake) (6 H post injection) | Radioactive concentration in tumour (tumoural uptake) (24 H post injection) | Radioactive concentration in tumour (tumoural uptake) (72 H post injection) | Radioactive concentration in tumour (tumoural uptake) (120 H post injection) | Radioactive concentration in tumour (tumoural uptake) (168 H post injection) | Radioactive concentration in tumour (tumoural uptake) (240 H post injection) | Radioactive concentration in tumour (tumoural uptake) (360 H (15 days) post injection) | Radioactive concentration in tumour (tumoural uptake) (3 H post injection)
CCN(CCNC(=O)c1cnc2cc([125I])ccc2n1)CCOc1cccnc1F [[^125I]11, [^125I]N-[2-[N-ethyl-N-[2-(2-fluoropyridin-3-yloxy)ethyl]amino]ethyl]-6-iodoquinoxaline-2-carboxamide dihydrochloride salt] | 12.7 ± 2.3 % ID/g | 18.8 ± 1.6 % ID/g | 18.2 ± 0.6 % ID/g | 10.3 ± 1.7 % ID/g | 5.2 ± 1.2 % ID/g | 3.2 ± 0.4 % ID/g | 1.7 ± 0.4 % ID/g | 0.6 ± 0.3 % ID/g | –
CCN(CCNC(=O)c1cnc2cc([125I])ccc2n1)CCNc1cccc(F)n1 [[^125I]17, [^125I]N-[2-[N-ethyl-N-[2-[(6-fluoropyridin-2-yl)amino]ethyl]amino]ethyl]-6-iodoquinoxaline-2-carboxamide dihydrochloride salt] | 13.1 ± 6.8 % ID/g | 12.5 ± 3.9 % ID/g | 8.6 ± 0.9 % ID/g | 5.7 ± 1.5 % ID/g | 2.6 ± 0.4 % ID/g | 1.5 ± 0.2 % ID/g | 0.8 ± 0.1 % ID/g | 0.4 ± 0.2 % ID/g | 13.7 ± 6.1 % ID/g
CCN(CCF)CCNC(=O)c1cnc2cc([125I])ccc2n1 [[^125I]26, [^125I]N-[2-[[N-ethyl-N-(2-fluoroethyl)]amino]ethyl]-6-iodoquinoxaline-2-carboxamide dihydrochloride salt] | 21.4 ± 4.9 % ID/g | 25.0 ± 8.0 % ID/g | 24.8 ± 6.5 % ID/g | – | 8.4 % ID/g | – | 1.6 % ID/g | 0.6 % ID/g | –
CCN(CCNC(=O)c1cnc2cc([125I])ccc2n1)Cc1ccnc(F)c1.Cl.Cl [[^125I]34] | 10.3 ± 6.6 % ID/g | 15.4 ± 6.7 % ID/g | 16.0 ± 7.4 % ID/g | 10.0 ± 2.6 % ID/g | 7.1 ± 1.8 % ID/g | – | 1.9 ± 0.9 % ID/g | 0.8 ± 0.5 % ID/g | 12.0 ± 4.8 % ID/g
CCN(CCNC(=O)c1ccnc(F)c1)CCNC(=O)c1cnc2cc([125I])ccc2n1.Cl.Cl [[^125I]40] | 9.6 ± 0.7 % ID/g | 12.1 ± 3.2 % ID/g | 12.1 ± 4.6 % ID/g | 9.6 ± 7.1 % ID/g | 5.1 ± 3.3 % ID/g | – | – | – | 8.8 ± 1.6 % ID/g
CCN(CCNC(=O)c1cnc2cc([125I])ccc2n1)CCc1ccnc(F)c1.Cl.Cl [[^125I]47] | 12.1 ± 4.1 % ID/g | 14.5 ± 6.6 % ID/g | 11.2 ± 2.5 % ID/g | 7.7 ± 0.9 % ID/g | 5.2 ± 1.7 % ID/g | 3.0 ± 1.0 % ID/g | 1.6 ± 0.5 % ID/g | 1.1 ± 0.3 % ID/g | 13.3 ± 6.0 % ID/g
